The source of these data is patent US11384066B1, “Heterocyclic compounds useful as aurora a selective inhibitors” (Jacobio Pharmaceuticals Co., Ltd., priority 2020, dated 2022).

One data set concerns the target Aurora A (Homo sapiens (Human), UniProt O14965). In words: Aurora A kinase assay (mobility shift assay). The class given is biochemical. The protocol:
(§1) Example A: Evaluation of Aurora a and Aurora B Inhibitory Effect—Kinase Assay
(§2) The inhibitory activities of a test compound against Aurora A and Aurora B were measured according to the following method.
(§3) The IC50 value of Aurora A and Aurora B kinase was performed by Sundia MediTech Co. Ltd. using Mobility shift assay.
(§4) • (1) Prepare a 1× kinase buffer [50 mM 4-(2-hydroxyethyl)-1-piperazineethanesulfonic acid (HEPES), PH 7.5, 0.01% Brij-35, 10 mM MgCl2, 2 mM dithiothreitol (DTT)]. • (2) Prepare compound:
(§5) The testing compound was dissolved with DMSO. The testing compound was diluted up to 100× final concentration in a 384-well plate. Transfer 250 nL of the compound dilution to a 384-well assay plate using Echo 550. 100% DMSO of 250 nL was added to the negative control well and the positive control well. • (3) Prepare a 2.5× enzyme solution using the above 1× kinase buffer. • (4) Add 10 μL of the 2.5× enzyme solution to the compound well and the positive control well of the 384-well assay plate. Add 10 μL of the 1× kinase buffer to the negative control well. • (5) The 384-well plate was centrifuged at 1000 rpm for 30 seconds and incubated at room temperature for 10 min. • (6) A mixture of ATP and Kinase substrate 21 with a final concentration of 25/15× was prepared by the 1× kinase buffer. • (7) Add 15 μL of the mixture of 25/15×ATP and kinase substrate solution 21 to start reaction. • (8) The 384-well plate was centrifuged at 1000 rpm for 30 seconds and incubated at room temperature. • (9) 30 μL of the stop and detection buffer was added to stop the kinase reaction and centrifuged at 1000 rpm for 30 seconds. • (10) Collect data on Caliper EZ ReaderII. Data Analysis:
(§6) Conversion %_sample is conversion rate data of samples. Conversion %_min is mean value of negative control (conversion rate data without enzyme activation). Conversion %_max is mean positive control (conversion rate data without compound).
(§7) The log of concentration is on the X axis, and the percentage inhibition is on the Y axis. Fit the Quantitative effect curves with log (inhibitor) vs. response—Variable slope in GraphPad Prism5 obtain IC50 values. Equation used is Y=Bottom+(Top−Bottom)/(1+10^((Log IC50−X)*HillSlope)).

The next data set addresses Aurora B (Homo sapiens (Human), UniProt Q96GD4). In words: Aurora B kinase assay (mobility shift assay). The settings on record: ratio of Aurora B IC50 to Aurora A IC50. The class given is biochemical. The procedure:
as §1, §2, §3, §4, §5, §6, §7

The next data set relates to NCI-H2171 cells. In words: Cell proliferation assay (CellTiter-Glo), NCI-H2171. The class given is cell-based. The settings on record: Homo sapiens, NCI-H2171, 120 h, 5 days. The procedure: (§8) Example B: Cell Proliferation Assay
(§9) NCI-H2171 and NCI-H446 cell proliferation analysis were conducted by CellTiter-Glo (Promega, Cat #G1111). The cells will be harvested respectively during the logarithmic growth period and counted with hemocytometer. […] Adjust NCI-H2171 and NCI-H446 cells concentrations to 1.0×10^5 cells/mL with complete medium (RPMI-1640 medium supplemented with 10% (v/v) fetal bovine serum). 100 μL/cell suspensions were added to 96-well plates, and the final cell densities were 1.0×10^4 cells/well. The plate will be cultured overnight in 5% CO2 and 95% humidity at 37° C. The next day, the test compound was dissolved in DMSO as stock solution. Then the different concentrations of compound were added into 96-well plates. The plates will be cultured for 5 days, then measured by means of CellTiter-Glo assay. 50 μL/cell CellTiter-Glo reagent was added into 96-well plates. Shock incubation for 5 min and then stand incubation for 10 min at room temperature. Record the Luminosity values using an microplate spectrophotometer (Spark, Tecan). Fit the data using GraphPad 8.0 and obtain IC50 values.
(§10) Formula: Survival (%)=(Lumtest−Lummedia control)/(Lumcell control−Lummedia control)×100%
On the technique in general: In ATP-based viability assays light output follows the ATP content of the culture.

The next data set relates to NCI-H446 cells. In words: Cell proliferation assay (CellTiter-Glo), NCI-H446. The class given is cell-based. The conditions noted are these: Homo sapiens, NCI-H446, 120 h, 5 days. The procedure: as §8, §9, §10
Data set [1] concerns NCI-H446 human small cell lung cancer xenograft. Kind of data set: In vivo anti-tumor efficacy, NCI-H446 xenograft model. Also noted: species or system BALB/c nude mice. The conditions noted are these: 15 mg/kg po., BID × 10days, QD × 19days, treatment 29 days, Table C does not say which xenograft (NCI-H446 or NCI-H69); for TV (mm^3): mean ± sem. The procedure:
This study is to examine the anti-tumor efficacy of test compounds in NCI-H446 and NCI-H69 human small cell lung cancer xenograft model in BALB/c nude mice. Each mouse was inoculated subcutaneously at the right flank region with NCI-H446 (3×10^6) and NCI-H69 cells (5×10^6) in 0.1 mL of PBS and Matrigel (1:1) for tumor development. The mouse were randomized according to tumor size and weight, the treatment began when the mean tumor size reached 100-200 mm^3. Anti-tumor activity was assessed according to relative tumor inhibition rate (TGI).
Tumor volumes were measured in two dimensions using a caliper, and the volume was expressed in mm^3 using the formula: V=0.5 a×b^2 where a and b are the long and short diameters of the tumor, respectively. Statistical analysis of difference in tumor volume among the groups were performed using one-way ANOVA. All data was analyzed using SPSS 22.0 software, p<0.05 was considered to be statistically significant.

Another data set in a line: PK in rat. The class given is in vivo. The conditions noted are these: rat, plasma, SD male rats; for clearance / Vd: IV: 3 mg/kg; for Vd: read-out: Vss; for AUC(0-t) / half-life / Cmax: PO: 10 mg/kg; for bioavailability: PO: 10 mg/kg vs IV: 3 mg/kg; for Cmax: read-out: Cmax. The protocol: The compounds were dissolved into 10% DMSO, 30% PEG400, and 60% saline to obtain a solution. SD male rats were given the compound orally and intravenously. Then plasma samples were collected at 0 hour (pre-dose), 0.25, 0.5, 1, 2, 4, 7, 24 hours post-dose. Plasma drug concentration was detected by LC-MS/MS. Pharmacokinetic parameters were calculated using WinNonlin's software with non-compartmental model.

Aurora A, sequence (O14965 whole entry): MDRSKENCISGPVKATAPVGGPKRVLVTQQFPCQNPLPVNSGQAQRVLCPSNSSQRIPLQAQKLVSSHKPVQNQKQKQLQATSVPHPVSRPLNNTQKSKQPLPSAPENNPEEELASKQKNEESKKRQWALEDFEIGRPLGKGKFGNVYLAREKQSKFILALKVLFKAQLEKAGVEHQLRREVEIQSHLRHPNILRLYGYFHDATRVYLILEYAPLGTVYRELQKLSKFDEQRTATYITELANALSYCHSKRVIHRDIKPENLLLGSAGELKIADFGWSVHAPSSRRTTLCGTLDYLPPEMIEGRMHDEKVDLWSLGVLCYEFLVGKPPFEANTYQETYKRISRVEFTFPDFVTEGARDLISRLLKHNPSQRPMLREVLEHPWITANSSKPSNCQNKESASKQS
Aurora B, sequence (Q96GD4 whole entry): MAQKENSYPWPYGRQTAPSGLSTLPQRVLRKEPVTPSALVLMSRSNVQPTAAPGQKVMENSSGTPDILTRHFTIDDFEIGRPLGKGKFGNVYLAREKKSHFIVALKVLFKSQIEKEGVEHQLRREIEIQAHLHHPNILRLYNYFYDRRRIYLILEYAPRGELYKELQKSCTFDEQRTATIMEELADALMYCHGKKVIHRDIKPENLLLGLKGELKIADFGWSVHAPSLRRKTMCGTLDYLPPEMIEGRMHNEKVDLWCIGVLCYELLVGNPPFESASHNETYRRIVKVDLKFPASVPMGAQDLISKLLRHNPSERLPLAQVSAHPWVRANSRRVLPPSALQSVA

Take `Cc1cc(Nc2nc(C[C@@]3(C(=O)O)CCN(Cc4cccc(Cl)c4F)[C@H](C)C3)ccc2F)[nH]n1` [Example 5, (2R,4R)-1-(3-chloro-2-fluorobenzyl)-4-((5-fluoro-6-((3-methyl-1H-pyrazol-5-yl)amino)pyridin-2-yl)methyl)-2-methylpiperidine-4-carboxylic acid]: the IC50 at Aurora A worked out at 0.59 nM. On Aurora B, the “IC50 Ratio Aur B/Aur A” value is 1311. Half-maximal inhibition in the data set on NCI-H2171 cells (IC50) required 30 nM. Besides, the IC50 in the data set on NCI-H446 cells worked out at 80 nM. Moreover, in data set [1], the “TGITV(%)” value worked out at 98% and the “TV (mm^3)” value is 27 ± 5 mm^3. In “PK in rat”, the clearance turned out to be 2.74 mL/min/kg, the Vd was 0.56 L/kg, the AUC(0-t) was 179 µg·h/mL and the half-life is 4.25 h. Also, in “PK in rat”, the bioavailability was found to be 168% and the Cmax amounted to 26600 ng/mL.
On to `Cc1cc(Nc2ccc(F)c(C[C@@]3(C(=O)O)CCN(Cc4c(F)ccc(Cl)c4F)[C@H](C)C3)n2)n[nH]1` [Example 6, (2R,4R)-1-(3-chloro-2,6-difluorobenzyl)-4-((3-fluoro-6-((5-methyl-1H-pyrazol-3-yl)amino)pyridin-2-yl)methyl)-2-methylpiperidine-4-carboxylic acid], for which the IC50 at Aurora A amounted to 0.33 nM. The “IC50 Ratio Aur B/Aur A” value on Aurora B was 6112. In addition, the IC50 in the data set with NCI-H2171 cells came to 55 nM. This compound showed an IC50 with NCI-H446 cells of 103 nM. Also, in “PK in rat”, the clearance amounted to 0.67 mL/min/kg, the Vd was 0.18 L/kg, the AUC(0-t) stood at 215 µg·h/mL and the half-life is 6.3 h. In the data set “PK in rat”, the bioavailability is 86% and the Cmax stood at 34900 ng/mL.
For the compound `Cc1cc(Nc2cc(C)c(F)c(C[C@@]3(C(=O)O)CCN(Cc4cccc(Cl)c4F)[C@H](C)C3)n2)n[nH]1` [Example 49, (2R,4R)-1-(3-chloro-2-fluorobenzyl)-4-((3-fluoro-4-methyl-6-((5-methyl-1H-pyraz-ol-3-yl)amino)pyridin-2-yl)methyl)-2-methylpiperidine-4-carboxylic acid], the IC50 on Aurora A is 0.7 nM. Also, the “IC50 Ratio Aur B/Aur A” value on Aurora B was found to be 443. Also, in the data set on NCI-H2171 cells, the IC50 was found to be 18 nM. The compound also came in with an IC50 in the data set on NCI-H446 cells of 24 nM. In addition, in data set [1], the “TGITV(%)” value was 90% and the “TV (mm^3)” value turned out to be 160 ± 26 mm^3. In addition, in “PK in rat”, the clearance was determined as 1.05 mL/min/kg, the Vd is 0.22 L/kg, the AUC(0-t) came out at 202 µg·h/mL and the half-life was 2.95 h. Besides, in “PK in rat”, the bioavailability came out at 127% and the Cmax was found to be 21000 ng/mL.
Regarding `Cc1cc(Nc2cc(C)c(F)c(C[C@@]3(C(=O)O)CCN(Cc4c(F)ccc(Cl)c4F)[C@H](C)C3)n2)n[nH]1` [Example 50, (2R,4R)-1-(3-chloro-2,6-di-fluorobenzyl)-4-((3-fluoro-4-methyl-6-((5-methyl-1H-pyra-zol-3-yl)amino)pyridin-2-yl)-methyl)-2-methylpiperidine-4-carboxylic acid], on Aurora A, the IC50 was 0.52 nM. The “IC50 Ratio Aur B/Aur A” value at Aurora B turned out to be 845. This compound also showed an IC50 with NCI-H2171 cells of 25 nM. Further, in the data set with NCI-H446 cells, the IC50 was determined as 73 nM. In addition, in the data set “PK in rat”, the clearance is 1.45 mL/min/kg, the Vd was found to be 0.26 L/kg, the area under the curve AUC(0-t) was 173 µg·h/mL and the half-life is 3.62 h. Moreover, in “PK in rat”, the bioavailability stood at 140% and the Cmax came to 16100 ng/mL.
For `Cc1cc(Nc2cc(Cl)c(F)c(C[C@@]3(C(=O)O)CCN(Cc4cccc(Cl)c4F)[C@H](C)C3)n2)n[nH]1` [Example 72, (2R,4R)-1-(3-chloro-2-fluorobenzyl)-4-((4-chloro-3-fluoro-6-((5-methyl-1H-pyrazol-3-yl)amino)pyridin-2-yl)methyl)-2-methylpiperidine-4-carboxylic acid], the IC50 on Aurora A was 0.64 nM; in the data set with NCI-H2171 cells it was 23 nM; in the data set with NCI-H446 cells it was 56 nM. Also, the “IC50 Ratio Aur B/Aur A” value on Aurora B was 582. Moreover, the “TGITV(%)” value in data set [1] is on record as 89%. Moreover, the “TV (mm^3)” value in data set [1] is 176 ± 25 mm^3.
For the compound `Cc1cc(Nc2nc(C[C@@]3(C(=O)O)CCN(Cc4cccc(Cl)c4F)[C@H](C)C3)cc(Cl)c2F)n[nH]1` [Example 73, (2R,4R)-1-(3-chloro-2-fluorobenzyl)-4-((4-chloro-5-fluoro-6-((5-methyl-1H-pyrazol-3-yl)amino)pyridin-2-yl)methyl)-2-methylpiperidine-4-carboxylic acid], the values for the IC50 at Aurora A, in the data set on NCI-H2171 cells and in the data set with NCI-H446 cells were 0.76 nM, 27 nM and 63 nM, respectively. Moreover, at Aurora B, the “IC50 Ratio Aur B/Aur A” value stood at 779.
Turning to `Cc1cc(Nc2nc(C[C@@]3(C(=O)O)CCN(Cc4cccc(Cl)c4F)[C@H](C)C3)cc(C)c2F)n[nH]1` [Example 78, (2R,4R)-1-(3-chloro-2-fluorobenzyl)-4-((5-fluoro-4-methyl-6-((5-methyl-1H-pyrazol-3-yl)amino)pyridin-2-yl)methyl)-2-methylpiperidine-4-carboxylic acid], the IC50 at Aurora A turned out to be 0.37 nM. Besides, the “IC50 Ratio Aur B/Aur A” value on Aurora B was 1219. In addition, in the data set on NCI-H2171 cells, 13 nM corresponded to half-maximal inhibition (IC50). Further, the IC50 in the data set with NCI-H446 cells stood at 32 nM. Further, in data set [1], the “TGITV(%)” value amounted to 96% and the “TV (mm^3)” value came to 65 ± 14 mm^3. In “PK in rat”, the clearance was 0.585 mL/min/kg, the Vd is 0.22 L/kg, the AUC(0-t) is 236 µg·h/mL and the half-life was 4.61 h. Also, in the data set “PK in rat”, the bioavailability is 85.8% and the Cmax is 28900 ng/mL.

By IC50 is commonly meant the concentration at which inhibition is half-maximal. A word on the clearance: it is a measure of how efficiently the substance is removed, as volume per time. The low end stands for a low capacity for elimination, the high end for a high capacity for elimination. As a reminder, the AUC(0-t) is the area under the concentration-time curve up to a stated or last time point. As a reminder, the half-life is how long it takes for the measured level to halve. The low end stands for rapid decline, the high end for slow decline. For orientation: Cmax means the maximum level reached in the sampled fluid or tissue.
